Laboratory results: PubChem BioAssay AID179 (DTP/NCI, 2004)
Active and inactive are the calls of the source.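 How the source made its calls: active means compounds giving half or more protection of infected cells from virus-caused growth loss, again on retest; inactive means the rest.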 Where a SMILES comes first, the peptide text is derived from it.

Test system: CEM cells HIV-1 protection, formazan growth assay
Experiment: NCI AIDS Antiviral Assay
Conditions: for IC50: measured here: growth of uninfected CEM cells
Method in brief: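 Five concentrations of each compound were applied to infected and uninfected human CEM cells. Protection from HIV-1 was judged from growth measured with a soluble formazan assay.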

SMILES | EC50 [µM] | IC50 [µM] | outcome
Cc1nnc(N/N=C(/C(=O)C(C#N)c2ccccc2)C(C#N)c2ccccc2)n1N (configuration not stated) | > 224 | 38.9 | –
COc1ccc(N=Nc2c(N)nn3cc4c(nc23)-c2ccccc2CC4)cc1 | > 200 | 2.57 | –
COc1ccc(/C=C\c2cc(OC)c(OC)c(OC)c2)cc1OC(=O)CC(NC(=O)OC(C)(C)C)C(=O)OC(C)(C)C (configuration not stated) | > 2 | 0.00331 | –
CCCC(O)[C@@H](O)c1ccc2c(c1O)C(=O)c1c(OC)cccc1C2=O (some centres not stated) | – | – | inactive
O=[N+]([O-])c1ccc(N=P(c2ccccc2)(c2ccccc2)c2ccccc2)n2nnnc12 | – | – | inactive
Cc1nc2ccccc2c(-n2cccn2)c1CCn1cccn1 | > 200 | 93.3 | –
Cc1cccc(C)c1NC(=O)CCC/C(CC(=O)c1ccc(F)cc1)=N\NC(=O)C(=O)NN | > 148 | > 148 | –
CNC(=S)N/N=C(C)\C(=N/NC(=S)NC)c1ccccc1 | > 200 | 29.5 | –
Cc1ccc(N2CN(c3ccc(C)cc3)CC(C)(N)C2)cc1 | > 200 | 24 | –
COc1cccc2c1-c1nc(N)c3c(OC)cccc3c1C2=O | 74.1 | > 200 | –
O=C1OCC2Cc3sccc3C(c3ccccc3)=C12 (configuration not stated) | > 97.7 | > 97.7 | –
O=c1[nH]cc(SSc2c[nH]c(=O)[nH]c2=O)c(=O)[nH]1 | 138 | > 200 | –
Cc1ccc2c(c1)[nH]c(=S)n2/C=C(/C#N)c1ccc([N+](=O)[O-])cc1 | > 200 | > 200 | –
CCOC(=O)C1=C(Nc2ccc(Cl)c(Cl)c2)OC/C1=N\NC(=O)Cc1ccccc1 | > 100 | > 100 | –
O=C(O)CSC(NC(=O)C(C(F)(F)F)C(F)(F)F)(C(F)(F)F)C(F)(F)F | > 200 | > 200 | –
Cc1ccc(/C(C#N)=C/c2ccccc2)cc1 | > 200 | 28.8 | –
O=Cc1ccc(-c2ccc(S(=O)(=O)O)cc2)o1 | > 200 | 93.3 | –
CC(=O)OC12CC(C)C3(O)C4C=C(C)C(=O)[C@@]4(O)CC(CO)=C[C@H]3C1C2(C)C (some centres not stated) | – | – | active
CCOC(=O)N1c2c(ccn2C)-c2ccn(C)c2N1C(=O)OCC | > 15.1 | 5.89 | –
CCOC(=O)Cn1c(=O)c2nc(SC)sc2n(-c2ccccc2)c1=S | > 200 | > 200 | –
CN=C(n1ccnc1)n1ccnc1 | > 200 | > 200 | –
CN(C)CCN=C1Nc2ccccc2C(=O)N2CSCC12 (configuration not stated) | > 200 | > 200 | –
CSc1ccc(/C=N\C(=N)SN)cc1C | > 200 | 18.6 | –

SMILES | EC50 [µM] | IC50 [µM] | outcome
CC(C)/C(Cl)=N\OC(=O)Nc1ccc(F)cc1 | – | – | inactive
COc1ccc(OC2OC(COC(c3ccccc3)(c3ccc(OC)cc3)c3ccc(OC)cc3)C(O)C(O)C2O)cc1 (configuration not stated) | > 200 | 8.91 | –
Cc1ccc(S(=O)(=O)N2CCC(C(=O)O)=Cc3c2[nH]c(=O)n(-c2ccccc2)c3=O)cc1 | > 288 | > 288 | –
O=C(NCCCCCCO)c1cccc2cc3ccccc3nc12 | > 200 | 18.6 | –
COc1ccc(C2=C(OC(C)=O)c3cccn3-c3ccc(Cl)cc3S2)cc1 | > 200 | 12.3 | –
C=C1CCC23CC(CC[C@@H]2[C@@]12C[C@@H](c1ccoc1)OC2=O)OC3=O (some centres not stated) | > 79.4 | > 79.4 | –
Cn1cnc(N2CCCC2)c(C#N)c1=O | > 200 | > 200 | –
CC(=O)Nc1sccc1S(=O)(=O)c1ccc(Cl)cc1 | > 200 | > 200 | –
CC1=C(C(=O)Nc2ccccc2)C(c2ccc(N(C)C)cc2)C(C(=O)Nc2ccccc2)=C(C)N1 | – | – | inactive
COc1ccc([C@H]2C=[N+]([O-])O[C@H](OC3CCCC3)[C@@H]2OC(C)=O)cc1OC | > 200 | 11.2 | –
COC(=O)CSc1n[nH]c(-c2ccccc2)n1 | > 1000 | 372 | –
Nc1ccc(C2=Nc3ccccc3SC(c3ccccc3O)C2)cc1 (configuration not stated) | > 11 | > 11 | –
COc1c2c(cc3nc4ccccc4nc13)CCC(C(C)(C)O)C2 (configuration not stated) | – | – | inactive
C[N+](C)(C)CC1CCc2ccccc2C1=O (configuration not stated) | > 724 | 1.32 | –
COc1cc2c3c(n(C)c(=O)c2cc1OC)-c1cc2c(cc1C3=O)OCO2 | > 14.5 | 0.891 | –
COc1ccc2c(c1)[n+](=O)c(C(=O)C/C(=N/NC(=O)C[N+](C)(C)C)C(=O)Nc1cccc(C)c1C)c(C)n2O | > 6.31 | > 6.31 | –
NC(=N\N=C/c1ccc(Cl)cc1)/C(N)=N\N=C/c1ccc(Cl)cc1 | – | – | inactive
O=C(NC(CO)C(=O)N[C@H]1c2ccsc2C(=O)[C@H]1O)OCc1ccccc1 (some centres not stated) | – | – | inactive
COC(=O)c1c2n(c3ccccc13)C[C@H]1OC(C)(C)O[C@@H]21 | > 200 | 126 | –
O=Nc1ccc(N=O)cc1 | > 200 | > 200 | –
Cc1ccccc1N1C(=O)CC2(CCCC2)C1=O | > 363 | 214 | –
CC(C)CC(NC(=O)CNC(=O)C(CC(C)C)NC(=O)C(Cc1c[nH]cn1)NC(=O)C(CC(N)=O)NC(=O)C(C)NC(=O)C1CCCN1C(=O)C(Cc1ccc(O)cc1)NC(=O)C1CCCN1C(=O)C(C)NC(=O)C(CCC(=O)O)NC(=O)C(CC(=O)O)NC(=O)C(Cc1ccccc1)NC(=O)C(CC(N)=O)NC(=O)C(C)N)C(=O)O (configuration not stated) (H-ANFDEAPYPANHLGL-OH; configuration not given here) | > 38 | > 38 | –
